One compound from article PMC8597734 (Antimicrobial Agents and Chemotherapy, 2021) can be followed below.

The test system of series [1] is M. abscessus Bamboo. The experiment in a line: microbe, parasite or virus in culture. Conditions: Mycobacteroides abscessus, 72 h. The format is cell-based, Mycobacterium abscessus.
In series [2] the test system is M. abscessus subsp. massiliense CCUG 48898T. The experiment in a line: microbe, parasite or virus in culture. Format: cell-based, Mycobacterium abscessus. Conditions: Mycobacteroides abscessus, 72 h.
In series [3] the test system is M. abscessus subsp. bolletii CCUG 50184T. Briefly: microbe, parasite or virus in culture. Format: cell-based, Mycobacterium abscessus. Conditions: Mycobacteroides abscessus, 72 h.
Series [4] relates to M. abscessus Bamboo biofilms. The experiment in a line: Biofilm growth inhibition assay (biofilm MIC and MBC). The format is cell-based, Mycobacterium abscessus. The protocol: The biofilm growth inhibition assay was performed as previously described ([52]). Innovotech MBEC 96-well Biofilm Assay Plates (Innovotech 19111, Edmonton, AB, Alberta, Canada) were used, and the supplier’s manual was followed with minor modifications. Midlog phase M. abscessus Bamboo precultures (OD600 = 0.4–0.6) were spun down at 3,200 × g for 10 min at 25°C and washed with 7H9 medium without Tween 80 (7H9nt). Bacteria were resuspended into 25 ml 7H9nt to an OD600 = 0.0125 (1.0 × 10^6 CFU/ml). 150 μl of bacteria suspension was dispensed into each well of MBEC multititer plates and the polystyrene protrusions (pegs) of the MBEC lid were inserted into the culture-containing wells for 24 h at 37°C on an orbital shaker at 110 rpm to allow attachment of the bacteria to the pegs and initiation of biofilm growth. The lids with the pegs (now with 1-day-old biofilms) were transferred to new MBEC multititer plates containing 150 μl of fresh 7H9nt medium per well without bacteria (0 h time point). After that, the lids with biofilm-laden pegs were transferred once a day to a new multititer plate containing fresh 7H9nt medium. To measure growth of the biofilm formed on the peg, the pegs were washed in 200 μl of 7H9nt medium before they were aseptically removed and placed in 1.7 ml microcentrifuge tubes (VWR 87003-294, Rador, PA, United States) containing 500 μl PBS/Tween 80. The microcentrifuge tubes were vigorously vortexed at 2,000 rpm for 90 s at 25°C to detach the bacteria from the pegs before samples were serially diluted and plated for the determination of CFU/peg. […] The average drug-free biofilm growth was calculated by subtracting the average 24 h CFU/peg value from the average 72 h CFU/peg value for the untreated control pegs. The biofilm MIC was defined as the lowest drug concentration that reduced the CFU/peg by 90% relative to the average drug-free biofilm growth.

The test system of series [5] is M. abscessus Bamboo RM1 (GyrA M129K). The experiment in a line: microbe, parasite or virus in culture. The format is cell-based, Mycobacterium abscessus.
A short description of a further series: ChromlogD assay. Format: physicochemical. Conditions: reversed phase HPLC column (Gemini NX C18). The protocol:
The Chromatographic Hydrophobicity Index (CHI) values are measured using reversed phase HPLC column (50 × 2 mm […] Gemini NX C18, Phenomenex, UK) with fast acetonitrile gradient at starting mobile phase of pHs 2, 7.4 and 10.5. CHI values are derived directly from the gradient retention times by using a calibration line obtained for standard compounds. The CHI value approximates to the volume % organic concentration when the compound elutes. CHI is linearly transformed into ChromlogD by least-square fitting of experimental CHI values to calculated ClogP values for over 20K research compounds using the following formula: ChromlogD = 0.0857CHI-2.00. The average error of the assay is ±3 CHI unit or ±0.25 ChromlogD.

A short description of series [6]: AMP (artificial membrane permeability) assay. The format is in vitro ADME. Conditions: PAMPA, pH 7.4. The protocol:
An 8% L-a-phosphatidylcholine (EPC) in 1% cholesterol decane solution and a 1.8% EPC in cholesterol decane solution were prepared. The lipid solution was aliquoted into 4 ml capped vials, sealed with parafilm and stored in −20°C freezer. The lipid solution was then transferred from 4 ml vial into a 96-well half area plate (130 μl/well) for daily assay usage. An additional 50 mM phosphate buffer with 0.5% encapsin, pH at 7.4 was prepared. The assay was run by the Biomek FX and Biomek software. The assay procedure is written under the Biomek software. For one batch assay, it can test two 96-well sample plates with at least one standard on each sample plate. The total assay time was about 4 h. 3.5 μl of lipid solution were added to the filler plate, shaken for 12 s, and 250 μl of buffer were added to donor side and 100 μl to the receiver side. The assay plate was shaken for 45 min before adding the compounds. The test compounds (2.5 μl) were added to the donor side. The assay was run as replicates: Assay plates 1 and 2 tested the sample plate 1; assay plates 3 and 4 tested the sample plate 2. The assay plates were then incubated and shaken for 3 h at room temperature. The assay samples were transferred to the HPLC analysis plates and 100 μl of receiver solution were aspirated and transferred to the receiver for analysis. […] Compound concentration was measured by HPLC at different time points.
A general note: The PAMPA barrier holds no transporters, so it reflects passive diffusion.

The test system of series [7] is M. abscessus subsp. abscessus K21. Briefly: M. abscessus mouse infection model. Format: in vivo, Mycobacterium abscessus. Conditions: NOD SCID mice, intranasal infection, 400 mg/kg oral once daily for 10 days; statistically significant. As for the experimental part: In vivo efficacy determinations were carried out as described previously, using 8-week-old female NOD.CB17-Prkdc^scid/NCrCrl (NOD SCID) mice (Charles River Laboratories) and the M. abscessus subsp. abscessus K21 strain ([48]). Briefly, anesthetized animals were infected by intranasal delivery of ∼10^6 CFU of M. abscessus subsp. abscessus K21. Acute infection was achieved within 1 day. Drugs or the vehicle control was administered to NOD SCID mice once daily for 10 consecutive days by oral gavage, starting from 1 day postinfection. Clarithromycin was formulated in 0.4% methyl cellulose–sterile water and administered at a dose of 250 mg/kg. […] EC/11716 was formulated in 0.4% methyl cellulose–sterile water and administered at 400 mg/kg. All mice were euthanized 24 h after the last dose (11 days postinfection), and their lungs and spleen were aseptically removed prior to homogenization. The bacterial load in these organs was determined by plating serial dilutions of the organ homogenates onto Middlebrook 7H11 agar (BD Difco) supplemented with 0.2% (vol/vol) glycerol and 10% (vol/vol) OADC. The agar plates were incubated for 5 days at 37°C prior to counting of colonies. All studies were conducted in accordance with the GSK Policy on the Care, Welfare and Treatment of Laboratory Animals and were reviewed the Institutional Animal Care and Use Committee either at GSK or by the ethical review process at the institution where the work was performed. All experiments involving live animals were approved by the Institutional Animal Care and Use Committee of the Center for Discovery and Innovation, Hackensack Meridian Health.

Series [8] relates to M. abscessus Bamboo.

Converted amounts (≈) assume the structure as drawn. Where two headings read alike, the source gives them in different places.

As usually defined, the Papp is the rate of passage across a membrane or cell layer, normalised by area and donor concentration. Consider `COc1cnc2ccc(=O)n(CCN3CCC(NCc4cnc(CO)c(Cl)c4)CC3)c2c1` [EC/11716], for which the MIC in the series on M. abscessus Bamboo [1] is 2.5 µM (≈ 1.14 µg/mL); in series [2] it was 4.7 µM (≈ 2.15 µg/mL); in [3], 4.1 µM (≈ 1.88 µg/mL); in series [4] (Mycobacteroides abscessus, Biofilm, M. abscessus Bamboo, 90% reduction of CFU/peg relative to drug-free biofilm growth, 48 h) it was 0.78 µM (≈ 0.357 µg/mL); in [5], more than 100 µM; in [5] (Mycobacteroides abscessus) it was more than 100 µM. In addition, the “increase of biofilm MBC relative to planktonic MBC” value in series [4] (M. abscessus Bamboo biofilm vs planktonic bacteria) was 2 fold. For the same compound, the MBC in series [4] (Mycobacteroides abscessus, Biofilm, M. abscessus Bamboo, 10-fold reduction of CFU/peg vs 24 h) stood at 6.3 µM (≈ 2.89 µg/mL). Further, the chromatographic logD in “ChromlogD assay” (pH 7.4, read-out: ChromLogD pH 7.4) was found to be 1.73; in the series “ChromlogD assay” (read-out: LogD), 1.74. The Papp at 3 h in series [6] came to 16 ×10⁻⁶ cm/s. For the same compound, the “reduction in lung CFU” value in series [7] turned out to be 1 log. Also, in the series on M. abscessus Bamboo [8], the frequency of resistance is 1.8 × 10^−8 /CFU.
